Source: patent US5232932A, “Method for treatment of neurodegenerative diseases” (R. J. Reynolds Tobacco Company, priority 1992, dated 1993)

Tests used:
[1] = biological target: high affinity nicotinic receptors; assay: Inhibition of L-[3H]nicotine binding to mouse brain membrane preparations; set-up: species or system Mice (DBA strain); settings: mouse brain membranes, 2 hr at 4° C., Ki calculated from IC50 by method of Cheng et al.
Description: Mice (DBA strain) were maintained on a 12 hour light/dark cycle and were allowed free access to water and food supplied by Wayne Lab Blox, Madison, WI. Animals used in the present studies were 60 to 90 days of age and weighed 20 to 25 g. Brain membrane preparations were obtained from pooled brain tissue of both males and females.
Mice were killed by cervical dislocation. Brains were removed and placed on an ice-cold platform. The cerebellum was removed and the remaining tissue was placed in 10 volumes (weight:volume) of ice-cold buffer (Krebs-RingersHEPES:NaCl, 118 mM; KCl, 4.8 mM; CaCl2, 2.5 mM; MgSO4, 1.2 mM; HEPES, 20 mM; pH to 7.5 with NaOH) and homogenized with a glass-Teflon tissue grinder. The resulting homogenate was centrifuged at 18000×g for 20 min. and the resulting pellet was resuspended in 20 volumes of water. […] Protein was determined by the method of Lowry, et al., J. Biol. Chem., Vol. 193, pp. 265-275 (1951), using bovine serum albumin as the standard.
The binding of L-[^3 H]nicotine was measured using a modification of the method of Romano, et al., Science, Vol. 210, pp. 647-650 (1980) as described previously by Marks, et al., Mol. Pharmacol., Vol. 30, pp. 427-436 (1986). The binding of L-[^3 H]nicotine was measured using a 2 hr. incubation at 4° C. […] Nonspecific binding was determined by inclusion of 10 μM nonradioactive nicotine in the incubations. […]

[2] = tested on: synaptosomes from the striatal area of rat brain; assay: [3H]-dopamine release from rat striatal synaptosomes; format: biochemical, Sprague-Dawley rats; settings: 0.2 ml of 10 μM solution of ligand; relative to equal concentration of (S)-(-)-nicotine
Description: Dopamine release was measured by preparing synaptosomes from the striatal area of rat brain obtained from Sprague-Dawley rats generally according to the procedures set forth by Nagy, et al., J. Neurochem., Vol. 43, pp. 1114-1123 (1984). Striata from 4 rats were homogenized in 2 ml of 0.32M sucrose buffered with 5 mM HEPES (pH 7.5), using a glass-teflon tissue grinder. The homogenate was diluted to 5 ml with additional homogenization solution and centrifuged at 1000×g for 10 min. This procedure was repeated on the new pellet and the resulting supernatant was centrifuged at 12,000×g for 20 min. […] Using this method, 30 to 90 percent of the dopamine was taken up into the synaptosomes, as determined by scintillation counting following filtration through glass fiber filters soaked with 0.5 percent polyethyleneimine. […] After the addition of a 0.2 ml of a 10 μM solution of ligand, the perfusate was collected into scintillation vials at 1 min. intervals and the dopamine released was quantified by scintillation counting. Peaks of radioactivity released above background were summed and the average basal release during that time was subtracted from the total. Release was expressed as a percentage of release obtained with an equal concentration of (S)-(-)-nicotine.

## CNCCCC(=O)c1cccnc1 [pseudooxynicotine]
[1]
  Ki: 1700 nM
[2]
  Dopamine Release, percent release relative to (S)-(-)-nicotine: 45%
